Experimental data taken from US20050113309A1, “Crystalline forms(2s)-n-5[amino(imino)methyl]-2-thienylmethyl-1-(2r)-2[(carboxymethyl) amino]-3,3-diphenylpropanoyl-2-pyrrolidinecarboxamide nh2o” (priority 2002, published 2005).
Entries after “also recorded” stand apart in the source; their conditions may differ.

Experiments:
[1] = Stress stability test (storage at −20° C., 50° C., 70° C. for 4 weeks); type: physicochemical; conditions: for Discoloration / change in appearance: 4 weeks' storage; for Color / Stability compared with the amorphous form: stress stability test; for Color: temperature not given (change in appearance at 70° C.)
Description: In order to compare physicochemical stability among the crystalline Form VI, the crystalline Form I, and the amorphous form prepared in Examples 7, 8, and Comparative Example 1, the stress stability test was conducted by placing their samples at the temperatures of −20° C., 50° C., and 70° C. for 4 weeks.

[2] = Powder X-ray diffraction during moisture absorption and dehumidification (crystal form stability to relative humidity); type: physicochemical; conditions: moisture absorption / relative humidity 33-93%
Description: 40 mg of the above crystalline Form I was thinly coated onto a sample holder. And, immediately after the sample was dried under vacuum in the presence of P2O5, and after the sample was placed for moisture absorption at each relative humidity of 33%, 53%, 64%, 75%, and 93% for two days or more, respectively, the powder X-ray diffraction test was conducted on the sample according to the conditions represented in above Test example 1 to observe change of the crystalline formi during moisture absorption. While lowering the relative humidity, the same test was repeated to observe change of the crystalline form during dehumidification.
In order to obtain each relative humidity above, as shown in the table below, saturated aqueous solutions of salts were prepared, then placed in a desiccator, and the desiccator was sealed.
40 mg of the above crystalline Form IV was thinly coated onto a sample holder. Immediately after the sample was dried under vacuum in the presence of P2O5, and after the sample was placed for moisture absorption at each relative humidity of 33%, 53%, 64%, 75%, and 93% for two days or more, respectively, the powder X-ray diffraction test of the sample was conducted according to the conditions represented in Test example 1 above to observe change of the crystalline form during moisture absorption. While lowering the relative humidity, the same test was repeated to observe change of the crystalline form during dehumidification.
In order to obtain each relative humidity above, as shown in Table 3 of Test example 2, saturated aqueous solutions of salts were prepared and then placed in a desiccator, and the desiccator was sealed.

Compound	Residual rate after 4 weeks ([1]; 50° C., 4 weeks)	Residual rate after 4 weeks ([1]; 50° C., 4 weeks, listed as amorphous form)	Residual rate after 4 weeks ([1]; 70° C., 4 weeks)	Discoloration / change in appearance ([1]; 70° C.)	Residual rate after 4 weeks ([1]; 70° C., 4 weeks, listed as amorphous form)	Color ([1]; 4 weeks)	Change in appearance ([1]; −20° C. and 50° C., 4 weeks)	Residual rate after 4 weeks ([1]; −20° C., 4 weeks)	Residual rate after 4 weeks ([1]; −20° C., 4 weeks, listed as amorphous form)	Change of crystal structure / crystalline form with relative humidity [2]	Stability compared with the amorphous form ([1]; 4 weeks)
N=C(N)c1ccc(CNC(=O)[C@@H]2CCCN2C(=O)[C@H](NCC(=O)O)C(c2ccccc2)c2ccccc2)s1 [Amorphous form, (2S)-N-5-[amino(imino)methyl]-2-thienylmethyl-1-(2R)-2-[(carboxymethyl)amino]-3,3-diphenylpropanoyl-2-pyrrolidinecarboxamide]	96%	96%	87%	discoloration; also recorded: change in appearance	87%	Yellow	did not show any change in appearance	96%	96%	–	–
N=C(N)c1ccc(CNC(=O)[C@@H]2CCCN2C(=O)[C@H](NCC(=O)O)C(c2ccccc2)c2ccccc2)s1 [Form I, (2S)-N-5-[amino(imino)methyl]-2-thienylmethyl-1-(2R)-2-[(carboxymethyl)amino]-3,3-diphenylpropanoyl-2-pyrrolidinecarboxamide]	99%	–	100%	stable without discoloration	–	Ivory	–	99%	–	–	remarkably superior stability over the amorphous form
N=C(N)c1ccc(CNC(=O)[C@@H]2CCCN2C(=O)[C@H](NCC(=O)O)C(c2ccccc2)c2ccccc2)s1 [Form II, (2S)-N-5-[amino(imino)methyl]-2-thienylmethyl-1-(2R)-2-[(carboxymethyl)amino]-3,3-diphenylpropanoyl-2-pyrrolidinecarboxamide]	–	–	–	–	–	–	–	–	–	changed to the crystalline Form III	–
N=C(N)c1ccc(CNC(=O)[C@@H]2CCCN2C(=O)[C@H](NCC(=O)O)C(c2ccccc2)c2ccccc2)s1 [Form VI, (2S)-N-5-[amino(imino)methyl]-2-thienylmethyl-1-(2R)-2-[(carboxymethyl)amino]-3,3-diphenylpropanoyl-2-pyrrolidinecarboxamide]	99%	–	100%	–	–	Ivory	–	101%	–	crystal structure is not changed under any relative humidity	remarkably superior stability over the amorphous form

Continued, in another order:

Residual rate after 4 weeks ([1]; 50° C., 4 weeks)	Residual rate after 4 weeks ([1]; 50° C., 4 weeks, listed as amorphous form)	Residual rate after 4 weeks ([1]; 70° C., 4 weeks)	Discoloration / change in appearance ([1]; 70° C.)	Residual rate after 4 weeks ([1]; 70° C., 4 weeks, listed as amorphous form)	Color ([1]; 4 weeks)	Change in appearance ([1]; −20° C. and 50° C., 4 weeks)	Residual rate after 4 weeks ([1]; −20° C., 4 weeks)	Residual rate after 4 weeks ([1]; −20° C., 4 weeks, listed as amorphous form)	Change of crystal structure / crystalline form with relative humidity [2]	Compound	Stability compared with the amorphous form ([1]; 4 weeks)
–	–	–	stable without discoloration	–	–	–	–	–	–	N=C(N)c1ccc(CNC(=O)[C@@H]2CCCN2C(=O)[C@H](NCC(=O)O)C(c2ccccc2)c2ccccc2)s1 [Form IV, (2S)-N-5-[amino(imino)methyl]-2-thienylmethyl-1-(2R)-2-[(carboxymethyl)amino]-3,3-diphenylpropanoyl-2-pyrrolidinecarboxamide]	–
–	–	–	–	–	–	–	–	–	changed into the crystalline Form VI	N=C(N)c1ccc(CNC(=O)[C@@H]2CCCN2C(=O)[C@H](NCC(=O)O)C(c2ccccc2)c2ccccc2)s1 [Form V, (2S)-N-5-[amino(imino)methyl]-2-thienylmethyl-1-(2R)-2-[(carboxymethyl)amino]-3,3-diphenylpropanoyl-2-pyrrolidinecarboxamide]	–
